This is an account of results in patent US20060189682A1, “Water soluble prodrugs of COX-2 inhibitors” (priority 2005, published 2006).

In general, solubility refers to the concentration that dissolves in the medium under given conditions.

Read-outs that look alike come from different tables or passages of the source. Some results are limits rather than exact numbers.

The nature of data set [1]: Solubility in deionized water @ 25° C. Format: physicochemical. On the procedure:
(§1) The physiochemical properties of Examples 1-6 and their ability to behave as pro-drugs and release in vivo the parent drug (the desired COX-2 inhibitor 5(S)-ethyl-3-isopropoxy-4-(4-methanesulfonylphenyl)-5-methyl-5H-furan-2-one) were examined. […] To ascertain the rates of conversion of the pro-drugs in vivo, the compounds were dosed as a saline solution of the salt form (except for 1, which was dosed in a PEG-400 solution) in Sprague-Dawley rats at 2 mg/kg intravenously. Plasma levels were measured for levels of the respective pro-drug and the desired COX-2 inhibitor at 5, 15, 30, and 60 min time points. The plasma levels measured at 30 minutes are given below (Table 1).

The nature of data set [2]: Plasma levels of pro-drug and desired COX-2 inhibitor after i.v. dosing in Sprague-Dawley rats. Format: in vivo. Particulars: for Levels of pro-drug in vivo / In vivo conversion to parent drug in plasma / Pharmacokinetic characteristics: 2 mg/kg i.v.; for Levels of pro-drug in vivo: rat model; for In vivo conversion to parent drug in plasma / Pharmacokinetic characteristics / concentration at 30 min: rat; for In vivo conversion to parent drug in plasma: plasma at 30 min; for concentration at 30 min: iv, plasma, 2 mg/kg i.v. dose of pro-drug, Sprague-Dawley rats, value @ 30 min, read-out: Levels of Pro-Drug @ 0.5 hr. On the procedure: as §1

In another data set the test system is infarct volume. To be noted: MCAO stroke model; cited from earlier work.
The conditions of data set [3]: background statement; cited from earlier work.
Data set [4] is described as follows: Stability of 4 mg/mL solution in water, judged @ 24 hr by LC-MS/HPLC. Format: physicochemical. To be noted: after 24 hr in water, HPLC analysis. On the procedure:
as §1

The mark [5] stands for this setting: deionized water, 25 °C, water, read-out: Solubility.
[6] abbreviates: saline solution of the salt form.

For `CC[C@]1(C)O/C(=N\[C@@H](CO)C(=O)[O-])C(OC(C)C)=C1c1ccc(S(C)(=O)=O)cc1.[K+]` [Example 4, N-[(5S)-5-ethyl-3-isopropoxy-5-methyl-4-[4-(methylsulfonyl)phenyl]furan-2(5H)-ylidene]-L-serine potassium salt], the solubility in data set [1] (setting [5]) was > 10000 µg/mL. The solubility in data set [1] (potassium salt) was >20000 µg/mL. Further, in data set [2], the “Levels of pro-drug in vivo” value was “dropped rapidly” and the “In vivo conversion to parent drug in plasma” value (“In vivo conversion” below) is “failed to give appreciable amounts of the parent drug”.

With `CC[C@]1(C)OC(=O)C(OC(C)C)=C1c1ccc(S(C)(=O)=O)cc1` [parent drug, 5(S)-ethyl-3-isopropoxy-4-(4-methanesulfonylphenyl)-5-methyl-5H-furan-2-one], the “Infarct volume” value in the data set on infarct volume is listed as “reduction in infarct volume”. The “Water solubility” value in data set [3] is listed as “poor water solubility”.

Consider `CC[C@]1(C)O/C(=N\OCC(=O)[O-])C(OC(C)C)=C1c1ccc(S(C)(=O)=O)cc1.[Na+]` [Example 6, [[[(5S)-5-ethyl-5-methyl-3-(1-methylethoxy)-4-[4-(methylsulfonyl)phenyl]-2(5H)-furanylidene]amino]oxy]acetic acid sodium salt], for which the solubility in data set [1] (setting [5]) was > 10000 µg/mL. For the same compound, in data set [1] (sodium salt), the solubility amounted to 10000 µg/mL. In data set [2], the “Levels of pro-drug in vivo” value is given as “dropped rapidly” and the “In vivo conversion” value is reported as “failed to give appreciable amounts of the parent drug”.

Regarding `CC[C@@]1(C)OC2(OC[C@@H]([C@H]3OC(=O)C(O)=C3[O-])O2)C(OC(C)C)=C1c1ccc(S(C)(=O)=O)cc1.[Na+]` (stereo partly drawn) [Example 5], the solubility in data set [1] (setting [5]) is > 10000 µg/mL; in data set [1] (monosodium salt) it was >20000 µg/mL. Besides, the “Pharmacokinetic characteristics” value in data set [2] is “superior pharmacokinetic characteristics”. Moreover, the “Stability in solution” value in data set [4] is “rapid decomposition”.

For the compound `CC[C@]1(C)OC2(OCC(COP(=O)([O-])OCC[N+](C)(C)C)O2)C(OC(C)C)=C1c1ccc(S(C)(=O)=O)cc1` (stereo in doubt) [Example 3, 2-{[({(2R,7S)-7-ethyl-9-isopropoxy-7-methyl-8-[4-(methylsulfonyl)phenyl]-1,4,6-trioxaspiro[4.4]non-8-en-2-yl}methoxy)(hydroxy)phosphoryl]oxy}-N,N,N-trimethylethanaminium], the solubility in data set [1] is >20000 µg/mL; in data set [1] (setting [5]), > 10000 µg/mL. Further, the “Pharmacokinetic characteristics” value in data set [2] is on record as “superior pharmacokinetic characteristics”. For the same compound, the concentration at 30 min in data set [2] (setting [6]) was 200 nM.

Regarding `CC[C@]1(C)OC2(OCC(CO)O2)C(OC(C)C)=C1c1ccc(S(C)(=O)=O)cc1` (stereo partly drawn) [Example 1, {(7S)-7-ethyl-9-isopropoxy-7-methyl-8-[4-(methylsulfonyl)phenyl]-1,4,6-trioxaspiro[4.4]non-8-en-2-yl}methanol], the solubility in data set [1] was <1000 µg/mL; in data set [1] (setting [5]) it was < 1000 µg/mL. In addition, the “Pharmacokinetic characteristics” value in data set [2] is “superior pharmacokinetic characteristics”. For the same compound, the “In vivo conversion” value in data set [2] was “converted to yield appreciable levels of the parent drug”. For the same compound, the concentration at 30 min in data set [2] (dosed in PEG-400 solution) came to 1400 nM.

In the case of `CC[C@]1(C)OC2(OCC(COC(=O)CCC(=O)[O-])O2)C(OC(C)C)=C1c1ccc(S(C)(=O)=O)cc1.[Na+]` (stereo partly drawn) [Example 2, Sodium 4-({(7S)-7-ethyl-9-isopropoxy-7-methyl-8-[4-(methylsulfonyl)phenyl]-1,4,6-trioxaspiro[4.4]non-8-en-2-yl}methoxy)-4-oxobutanoate], the solubility in data set [1] (setting [5]) was determined as 2000 µg/mL. Moreover, in data set [2], the “Pharmacokinetic characteristics” value is reported as “superior pharmacokinetic characteristics” and the “In vivo conversion” value was “converted to yield appreciable levels of the parent drug”. Further, the concentration at 30 min in data set [2] (setting [6]) was < 100 nM.
